From patent US8722714B2, “Oxazolidine derivatives as NMDA antagonists” (The Honk Kong University of Science and Technology, priority 2008, dated 2014)

Tests used:
[1] = tested on: rat primary cortical neurons; test: Immunocytochemical analysis of neurons after NMDA insult; type: cell-based; settings: compound 10 μg/ml; beta-tubulin type III and DAPI stain
Experimental: Primary cortical and hippocampal neurons were prepared from embryonic day 18 (E18) Sprague-Dawley rats. Neurons were plated on 35-mm dishes (NUNC) at a density of 1×10^6 cells per plate using Neurobasal medium (Invitrogen) supplemented with 2% B27 (Invitrogen). Neurons at 11-12 days in vitro (DIV) were subjected to treatment with the test compounds. Neurons were pretreated with the test compound for 2 hours prior to NMDA treatment. 0.1 μM (+)-MK-801 Hydrogen Maleate (Sigma) was added as a positive control. Briefly, the neurons were rinsed with Locke's solution (5 mM potassium chloride, 128 mM sodium chloride, 2.7 mM calcium chloride, 1 mM di-sodium hydrogen orthophosphate, 5 mM HEPES and 10 mM glucose in Milli-Q water) without Mg^2+, and incubated with addition of glycine (10 μM) for 15 minutes. After the incubation, the neurons were co-treated with the test compound (dissolved in Locke's plus glycine solution) and NMDA (20 μM; Sigma) for 20 minutes. Neurons were rinsed with Locke's plus Mg^2+ and replaced with fresh growth medium. […] Neurons were then analyzed by a fluorescence microscope using a 40× objective (DMRA; Leica). […]
LC-02 (10 μg/mL) protects embryonic rat primary cortical neurons against NMDA excitotoxicity. Neurites were immunostained with beta-tubulin type III antibody and detected with FITC-conjugated antibody. […]

[2] = tested on: mice; test: Open Field Test (OFT); type: in vivo; settings: 100 mg/kg p.o., 7 times, vs control group
[3] = target: T1, Adenosine A1 (Homo sapiens, UniProt P30542); test: Ligand binding assay (High-throughput Profile, CEREP)
T1 construct: CEREP, France (contract assay, High-throughput Profile)
T1 sequence (P30542 1-326): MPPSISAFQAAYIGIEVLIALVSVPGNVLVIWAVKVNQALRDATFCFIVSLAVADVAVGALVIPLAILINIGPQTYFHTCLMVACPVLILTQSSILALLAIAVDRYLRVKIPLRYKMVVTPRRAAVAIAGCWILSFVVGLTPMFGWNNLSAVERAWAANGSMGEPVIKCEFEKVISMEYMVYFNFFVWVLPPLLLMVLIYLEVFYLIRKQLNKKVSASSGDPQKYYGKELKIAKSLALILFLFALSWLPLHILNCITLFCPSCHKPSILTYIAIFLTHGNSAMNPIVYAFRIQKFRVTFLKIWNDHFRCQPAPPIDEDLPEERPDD
Experimental: (§1) To determine the pharmacological profile and potential targets of LC-02, 80 binding assays were performed (High-throughput Profile, CEREP, France). LC-02 was evaluated at a single concentration in these specific binding assays. […] A cutoff of 25% is considered as a moderate effect.
(§2) Compound LC-02 (10 μM) was subjected to ligand binding assays with human A3 and rat kappa receptor overexpressing cells. Results are expressed as a percent of control specific agonist response [100-(measured specific response/control specific agonist response)×100] obtained in the presence of LC-02.

[4] = target: T2, Adenosine A2A (Homo sapiens, UniProt P29274); test: as above
T2 construct: CEREP, France (contract assay, High-throughput Profile)
Experimental: as §1, §2

[5] = target: T3, Opioid (delta) (Homo sapiens, UniProt P41143); test: as above
T3 construct: CEREP, France (contract assay, High-throughput Profile)
Experimental: as §1, §2

[6] = target: T4, Opioid (mu) (Homo sapiens, UniProt P35372); test: as above
T4 construct: CEREP, France (contract assay, High-throughput Profile)
Experimental: as §1, §2

[7] = target: T5, adenosine A3 receptor (Homo sapiens, UniProt P0DMS8); test: as above; settings: [125I]AB-MECA, human A3 overexpressing cells
T5 sequence (P0DMS8 1-318): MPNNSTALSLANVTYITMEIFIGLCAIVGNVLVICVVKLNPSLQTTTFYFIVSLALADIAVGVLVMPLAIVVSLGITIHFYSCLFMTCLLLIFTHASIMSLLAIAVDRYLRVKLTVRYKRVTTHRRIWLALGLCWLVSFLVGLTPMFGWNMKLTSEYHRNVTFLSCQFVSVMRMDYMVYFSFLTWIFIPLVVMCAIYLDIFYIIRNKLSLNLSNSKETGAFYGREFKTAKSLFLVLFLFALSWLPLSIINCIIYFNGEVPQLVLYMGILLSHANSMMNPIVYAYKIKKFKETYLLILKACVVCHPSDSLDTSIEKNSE
Experimental: as §1, §2

[8] = target: opioid kappa receptor (Rattus norvegicus, UniProt P34975); test: as above
Experimental: as §1, §2

[9] = tested on: mice; test: Forced Swim Test (FST); type: in vivo; settings: 100 mg/kg p.o., 7 times, last 4 min of 6-min swim
Excerpt: Outbred male I.C.R. mice of ˜3-4 weeks old weighing 20-22 g were used. The mice had free access to food (rodent chow #2053, 5g/mouse/day) and water. The cage floors were covered with wood shavings and the mice were handled once per week while the cages were cleaned. […] Number of mice per group was ˜10-15. To facilitate adaptation to novel surroundings, mice were transported to the testing area from the core animal facility at least one week prior to testing. All experimental sessions were conducted between 0900 and 1200 hours. Briefly, mice were put into a pyrex cylinder of 30 cm in height and 11.5 cm in diameter with water (10 cm) to a level that they would not be able to touch the bottom. Mice were put into the cylinder for twice, first day 15 min and second day 6 min. The duration of immobility (within the last 4 min in the 6-min time frame) of mice in FST were recorded using Etho-Vision® XT Mobility (Noldus software). The parameters to score the behavior of animals in the FST were fine-tuned by visual inspection. […]
The Forced Swim Test (FST) is a popular animal model for assessing depression. […] The time that the test animal spends in an immobile state in the second trial is measured (immobility time). […]
The task was then performed twice and the duration of time the mice spent in an immobile state during the second trial was measured. […]

opioid kappa receptor, sequence (P34975 whole entry): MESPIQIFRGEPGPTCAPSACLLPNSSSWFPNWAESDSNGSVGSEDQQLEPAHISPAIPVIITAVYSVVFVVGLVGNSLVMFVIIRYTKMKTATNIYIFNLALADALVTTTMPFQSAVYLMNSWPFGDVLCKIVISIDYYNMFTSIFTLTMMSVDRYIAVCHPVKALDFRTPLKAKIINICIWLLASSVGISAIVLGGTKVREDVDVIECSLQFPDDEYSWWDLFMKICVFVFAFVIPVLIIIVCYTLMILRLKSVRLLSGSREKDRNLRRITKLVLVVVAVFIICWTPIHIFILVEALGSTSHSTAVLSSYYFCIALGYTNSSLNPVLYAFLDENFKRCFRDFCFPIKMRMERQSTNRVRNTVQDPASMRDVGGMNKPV
T4 sequence (P35372 whole entry): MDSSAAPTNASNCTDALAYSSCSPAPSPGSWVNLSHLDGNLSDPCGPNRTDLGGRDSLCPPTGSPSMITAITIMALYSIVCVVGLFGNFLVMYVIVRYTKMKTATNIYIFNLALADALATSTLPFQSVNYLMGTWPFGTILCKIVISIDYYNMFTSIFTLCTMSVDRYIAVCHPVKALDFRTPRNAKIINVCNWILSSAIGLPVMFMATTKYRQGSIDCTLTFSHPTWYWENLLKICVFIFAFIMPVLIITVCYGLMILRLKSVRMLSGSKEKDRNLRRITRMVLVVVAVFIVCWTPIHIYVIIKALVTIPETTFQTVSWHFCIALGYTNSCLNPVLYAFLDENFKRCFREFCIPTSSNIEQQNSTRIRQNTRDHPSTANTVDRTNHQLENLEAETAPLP
T2 sequence (P29274 whole entry): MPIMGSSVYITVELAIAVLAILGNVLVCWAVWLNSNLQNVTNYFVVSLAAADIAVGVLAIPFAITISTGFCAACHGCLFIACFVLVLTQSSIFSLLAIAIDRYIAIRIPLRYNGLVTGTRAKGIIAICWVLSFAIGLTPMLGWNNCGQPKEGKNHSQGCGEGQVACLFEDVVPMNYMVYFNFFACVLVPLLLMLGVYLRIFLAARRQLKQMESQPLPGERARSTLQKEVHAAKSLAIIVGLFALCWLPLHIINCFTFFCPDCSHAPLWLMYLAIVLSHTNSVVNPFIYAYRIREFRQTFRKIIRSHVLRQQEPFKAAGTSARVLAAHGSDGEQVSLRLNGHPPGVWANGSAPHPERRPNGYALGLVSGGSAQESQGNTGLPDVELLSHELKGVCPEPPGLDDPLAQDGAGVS
T3 sequence (P41143 whole entry): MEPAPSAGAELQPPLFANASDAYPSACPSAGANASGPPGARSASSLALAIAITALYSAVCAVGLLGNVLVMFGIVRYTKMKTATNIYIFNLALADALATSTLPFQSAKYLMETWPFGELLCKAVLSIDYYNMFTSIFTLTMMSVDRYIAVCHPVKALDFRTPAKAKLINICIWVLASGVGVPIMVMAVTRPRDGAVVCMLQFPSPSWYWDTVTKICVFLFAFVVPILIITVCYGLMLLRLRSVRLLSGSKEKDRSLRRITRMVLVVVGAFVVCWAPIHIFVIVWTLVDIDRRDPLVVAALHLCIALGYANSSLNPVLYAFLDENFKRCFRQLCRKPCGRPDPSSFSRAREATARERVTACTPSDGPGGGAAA

Structure (SMILES)	protection against NMDA excitotoxicity and apoptosis (immunostaining) [1]	total distance travelled in the open field [2]	inhibition at 10 µM [3]	inhibition at 10 µM [4]	inhibition at 10 µM [5]	inhibition at 10 µM [6]	inhibition at 10 µM [7]	% of inhibition of ligand binding ([8]; 10 μM, [3H]U 69593, rat kappa receptor overexpressing cells)	inhibition at 10 µM ([8]; [3H]U 69593, rat kappa receptor overexpressing cells)	duration of immobility (immobility time) [9]
CC[C@H]1N[C@@H](CC(C)C)C(CC)(CC)O1 [LC-02]	protected the cells from excitotoxicity and the resulting apoptosis at a level similar to control cells	did not significantly differ	5%	6%	18%	14%	30%	26%	30%	–
CCCC1(CCC)O[C@@H](CC)N[C@H]1CC(C)C [LC-06]	–	–	–	–	–	–	–	–	–	Reduces the Duration of Immobility
